Assay results as given in US8969554B2, “6-acyl-1,2,4-triazine-3,5-dione derivative and herbicides” (Kumiai Chemical Industry Co., Ltd., priority 2010, dated 2015).

How the values were obtained:
Type in all cases: in vivo
A. retroflexus [1] = test: Herbicidal activity by field soil treatment (Test example 2); parameters: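 index 0 to 10 in 10% steps of herbicidal effect with 10 meaning complete death and 0 below 10%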; conditions: 1000 g effective component per hectare, day 21 after the treatment
Procedure, shortened: (§1)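 Pre-covered sown seed in field-soil pots (80 cm^2) got a soil-surface application of 1000 g/ha active ingredient, sprayed as a diluted wettable powder at 1000 L/ha water volume. Greenhouse-grown; herbicidal activity graded by criteria at 21 days post-application.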

Indian millet [2] = test: as above; parameters: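 index 0 to 10 in 10% steps of herbicidal effect with 10 meaning complete death and 0 below 10%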; conditions: 1000 g effective component per hectare, day 21 after the treatment
Procedure, shortened: as §1

A. retroflexus [3] = test: Herbicidal activity by field foliage treatment (Test example 3); parameters: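 index 0 to 10 in 10% steps of herbicidal effect with 10 meaning complete death and 0 below 10%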; conditions: 1000 g effective component per hectare, day 14 after the treatment
Procedure, shortened: (§2)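 Greenhouse foliar treatment at 1000 g a.i./ha of 2-week-old plants; herbicidal score at day 14.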

Indian millet [4] = test: as above; parameters: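 index 0 to 10 in 10% steps of herbicidal effect with 10 meaning complete death and 0 below 10%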; conditions: 1000 g effective component per hectare, day 14 after the treatment
Procedure, shortened: as §2

Echinochloa crus-galli [5] = test: as above; parameters: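 index 0 to 10 in 10% steps of herbicidal effect with 10 meaning complete death and 0 below 10%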; conditions: 1000 g effective component per hectare, day 14 after the treatment
Procedure, shortened: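 Herbicidal effect was rated on day 14 following a foliar spray of 1000 g active ingredient per hectare, applied as water-diluted wettable powder at 1000 L/ha. Plants had been raised for 2 weeks in field soil under greenhouse conditions before spraying.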

Setaria viridis = test: as above; conditions: 1000 g effective component per hectare, day 14 after the treatment
Experimental: Test example 3 Test for Determining Herbicidal Activity by Field Foliage Treatment A 80 cm^2 wide plastic pot was filled with a field soil and seeds of each of Indian millet and A. retroflexus were sowed and then incubated for 2 weeks in a green house. The wettable powder produced with reference to the Formulation example 1 was diluted water, and applied from the air to entire body of the plant as foliage treatment by using a small sprayer in an amount of 1000 liters per hectare so that the effective component is 1000 g per hectare. After that, the plants were cultivated in a greenhouse, and on day 14 after the treatment, evaluation was made by the criteria described in Table 72 for determining the herbicidal effects.

Monochoria vaginalis = test: Herbicidal activity by paddy field soil treatment (Test Example 1); parameters: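 index 0 to 10 in 10% steps of herbicidal effect with 10 meaning complete death and 0 below 10%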; conditions: 1000 g of effective component per hectare, evaluated on day 21 after the treatment, criteria of Table 72
Procedure, shortened: (§3)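 Using sown, 3 cm-flooded paddy soil pots, we apply diluted wettable powder to the water on day 1 post-sowing (1000 g active/ha), keep plants in a greenhouse, and grade herbicidal effects 21 days post-treatment.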

Echinochloa oryzicola = test: as above; parameters: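 index 0 to 10 in 10% steps of herbicidal effect with 10 meaning complete death and 0 below 10%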; conditions: 1000 g of effective component per hectare, evaluated on day 21 after the treatment, criteria of Table 72
Procedure, shortened: as §3

Scirpus juncoides Rocxb. = test: as above; parameters: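 index 0 to 10 in 10% steps of herbicidal effect with 10 meaning complete death and 0 below 10%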; conditions: applied on water surface, 1000 g of effective component per hectare, day 21 after the treatment
Procedure, shortened: as §3

Echinochloa crus-galli [6] = test: Herbicidal activity by field soil treatment (Test example 2); parameters: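 index 0 to 10 in 10% steps of herbicidal effect with 10 meaning complete death and 0 below 10%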; conditions: 1000 g effective component per hectare, day 21 after the treatment
Procedure, shortened: as §1
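Wherever herbicidal effect index, Setaria viridis is given: index 0 to 10 in 10% steps of herbicidal effect with 10 meaning complete death and 0 below 10%.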

## Cc1cc(Cl)cc(-n2c(=O)c(C(=O)C3=C(O)CCCC3=O)nn(C)c2=O)c1 [I-126]
A. retroflexus [1]
  herbicidal effect index, Amaranthus retroflexus: 10
Indian millet [2]
  herbicidal effect index, Abutilon theophrasti: 10
A. retroflexus [3]
  herbicidal effect index, Amaranthus retroflexus: 10
Indian millet [4]
  herbicidal effect index, Abutilon theophrasti: 9
Echinochloa crus-galli [5]
  herbicidal effect index, Echinochloa crus-galli: 9
Setaria viridis
  herbicidal effect index, Setaria viridis: 7
Monochoria vaginalis
  Herbicidal effects index number, Monochoria vaginalis: 10
Echinochloa oryzicola
  Herbicidal effects index number, Echinochloa oryzicola: 10
Scirpus juncoides Rocxb.
  herbicidal effect index, S. juncoides Rocxb.: 10

## O=C1CCCC(O)=C1C(=O)c1nn(C(F)F)c(=O)n(-c2ccccc2)c1=O [I-261]
Indian millet [2]
  herbicidal effect index, Abutilon theophrasti: 10
A. retroflexus [3]
  herbicidal effect index, Amaranthus retroflexus: 10
Indian millet [4]
  herbicidal effect index, Abutilon theophrasti: 10
Setaria viridis
  herbicidal effect index, Setaria viridis: 7
Monochoria vaginalis
  Herbicidal effects index number, Monochoria vaginalis: 10
Echinochloa oryzicola
  Herbicidal effects index number, Echinochloa oryzicola: 8
Scirpus juncoides Rocxb.
  herbicidal effect index, S. juncoides Rocxb.: 8

## CC(=O)Cn1c(=O)c(C(=O)C2=C(O)CCCC2=O)nn(C)c1=O [I-328]
A. retroflexus [3]
  herbicidal effect index, Amaranthus retroflexus: 10
Indian millet [4]
  herbicidal effect index, Abutilon theophrasti: 10
Echinochloa crus-galli [5]
  herbicidal effect index, Echinochloa crus-galli: 7
Setaria viridis
  herbicidal effect index, Setaria viridis: 7
Monochoria vaginalis
  Herbicidal effects index number, Monochoria vaginalis: 10
Echinochloa oryzicola
  Herbicidal effects index number, Echinochloa oryzicola: 10
Scirpus juncoides Rocxb.
  herbicidal effect index, S. juncoides Rocxb.: 10

## COc1cc(-n2c(=O)c(C(=O)C3=C(O)CCCC3=O)nn(C)c2=S)cc(OC)c1OC [I-464]
A. retroflexus [1]
  herbicidal effect index, Amaranthus retroflexus: 7
A. retroflexus [3]
  herbicidal effect index, Amaranthus retroflexus: 10
Indian millet [4]
  herbicidal effect index, Abutilon theophrasti: 10
Setaria viridis
  herbicidal effect index, Setaria viridis: 7
Monochoria vaginalis
  Herbicidal effects index number, Monochoria vaginalis: 10
Echinochloa oryzicola
  Herbicidal effects index number, Echinochloa oryzicola: 10
Scirpus juncoides Rocxb.
  herbicidal effect index, S. juncoides Rocxb.: 10

## Cn1nc(C(=O)C2=C(O)CCCC2=O)c(=O)n(CC(=O)C(C)(C)C)c1=O [I-468]
A. retroflexus [1]
  herbicidal effect index, Amaranthus retroflexus: 7
A. retroflexus [3]
  herbicidal effect index, Amaranthus retroflexus: 10
Indian millet [4]
  herbicidal effect index, Abutilon theophrasti: 10
Echinochloa crus-galli [5]
  herbicidal effect index, Echinochloa crus-galli: 9
Setaria viridis
  herbicidal effect index, Setaria viridis: 9
Monochoria vaginalis
  Herbicidal effects index number, Monochoria vaginalis: 10
Echinochloa oryzicola
  Herbicidal effects index number, Echinochloa oryzicola: 10
Scirpus juncoides Rocxb.
  herbicidal effect index, S. juncoides Rocxb.: 10

## Cn1nc(C(=O)C2=C(O)CCCC2=O)c(=O)n(-c2c(F)c(F)cc(F)c2F)c1=O [I-469]
A. retroflexus [3]
  herbicidal effect index, Amaranthus retroflexus: 10
Indian millet [4]
  herbicidal effect index, Abutilon theophrasti: 10
Echinochloa crus-galli [5]
  herbicidal effect index, Echinochloa crus-galli: 10
Setaria viridis
  herbicidal effect index, Setaria viridis: 10
Monochoria vaginalis
  Herbicidal effects index number, Monochoria vaginalis: 10
Echinochloa oryzicola
  Herbicidal effects index number, Echinochloa oryzicola: 10
Scirpus juncoides Rocxb.
  herbicidal effect index, S. juncoides Rocxb.: 10

## CCN(c1ccccc1)n1c(=O)c(C(=O)C2=C(O)CCCC2=O)nn(C)c1=O [I-474]
A. retroflexus [1]
  herbicidal effect index, Amaranthus retroflexus: 10
Echinochloa crus-galli [6]
  herbicidal effect index, Echinochloa crus-galli: 7
Indian millet [2]
  herbicidal effect index, Abutilon theophrasti: 10
A. retroflexus [3]
  herbicidal effect index, Amaranthus retroflexus: 9
Indian millet [4]
  herbicidal effect index, Abutilon theophrasti: 9
Echinochloa crus-galli [5]
  herbicidal effect index, Echinochloa crus-galli: 7
Monochoria vaginalis
  Herbicidal effects index number, Monochoria vaginalis: 10
Echinochloa oryzicola
  Herbicidal effects index number, Echinochloa oryzicola: 10
Scirpus juncoides Rocxb.
  herbicidal effect index, S. juncoides Rocxb.: 10

## CN(c1ccc(F)cc1)n1c(=O)c(C(=O)C2=C(O)CCCC2=O)nn(C)c1=O [I-476]
A. retroflexus [1]
  herbicidal effect index, Amaranthus retroflexus: 10
Echinochloa crus-galli [6]
  herbicidal effect index, Echinochloa crus-galli: 7
Indian millet [2]
  herbicidal effect index, Abutilon theophrasti: 10
A. retroflexus [3]
  herbicidal effect index, Amaranthus retroflexus: 10
Indian millet [4]
  herbicidal effect index, Abutilon theophrasti: 9
Echinochloa crus-galli [5]
  herbicidal effect index, Echinochloa crus-galli: 7
Monochoria vaginalis
  Herbicidal effects index number, Monochoria vaginalis: 10
Echinochloa oryzicola
  Herbicidal effects index number, Echinochloa oryzicola: 10
Scirpus juncoides Rocxb.
  herbicidal effect index, S. juncoides Rocxb.: 10

## O=C1CCCC(O)=C1C(=O)c1nn(CC(F)(F)F)c(=O)n(-c2ccccc2)c1=O [I-477]
A. retroflexus [1]
  herbicidal effect index, Amaranthus retroflexus: 10
Echinochloa crus-galli [6]
  herbicidal effect index, Echinochloa crus-galli: 9
Indian millet [2]
  herbicidal effect index, Abutilon theophrasti: 10
A. retroflexus [3]
  herbicidal effect index, Amaranthus retroflexus: 10
Indian millet [4]
  herbicidal effect index, Abutilon theophrasti: 9
Echinochloa crus-galli [5]
  herbicidal effect index, Echinochloa crus-galli: 9
Monochoria vaginalis
  Herbicidal effects index number, Monochoria vaginalis: 10
Echinochloa oryzicola
  Herbicidal effects index number, Echinochloa oryzicola: 10
Scirpus juncoides Rocxb.
  herbicidal effect index, S. juncoides Rocxb.: 10

## CCON=C(C)Cn1c(=O)c(C(=O)C2=C(O)CCCC2=O)nn(C)c1=O [I-478]
A. retroflexus [1]
  herbicidal effect index, Amaranthus retroflexus: 10
Echinochloa crus-galli [6]
  herbicidal effect index, Echinochloa crus-galli: 9
Indian millet [2]
  herbicidal effect index, Abutilon theophrasti: 10
A. retroflexus [3]
  herbicidal effect index, Amaranthus retroflexus: 10
Indian millet [4]
  herbicidal effect index, Abutilon theophrasti: 9
Echinochloa crus-galli [5]
  herbicidal effect index, Echinochloa crus-galli: 8
Monochoria vaginalis
  Herbicidal effects index number, Monochoria vaginalis: 10
Echinochloa oryzicola
  Herbicidal effects index number, Echinochloa oryzicola: 10
Scirpus juncoides Rocxb.
  herbicidal effect index, S. juncoides Rocxb.: 9

## Cn1nc(C(=O)O)c(=O)n(CC(=O)C(C)(C)C)c1=O [V-362]
A. retroflexus [1]
  herbicidal effect index, Amaranthus retroflexus: 7
A. retroflexus [3]
  herbicidal effect index, Amaranthus retroflexus: 10
Indian millet [4]
  herbicidal effect index, Abutilon theophrasti: 10
Echinochloa crus-galli [5]
  herbicidal effect index, Echinochloa crus-galli: 9
Setaria viridis
  herbicidal effect index, Setaria viridis: 9
Monochoria vaginalis
  Herbicidal effects index number, Monochoria vaginalis: 10
Echinochloa oryzicola
  Herbicidal effects index number, Echinochloa oryzicola: 10
Scirpus juncoides Rocxb.
  herbicidal effect index, S. juncoides Rocxb.: 10

## Cn1nc(C(=O)O)c(=O)n(-c2c(F)c(F)cc(F)c2F)c1=O [V-363]
A. retroflexus [3]
  herbicidal effect index, Amaranthus retroflexus: 10
Indian millet [4]
  herbicidal effect index, Abutilon theophrasti: 10
Echinochloa crus-galli [5]
  herbicidal effect index, Echinochloa crus-galli: 10
Setaria viridis
  herbicidal effect index, Setaria viridis: 10
Monochoria vaginalis
  Herbicidal effects index number, Monochoria vaginalis: 10
Echinochloa oryzicola
  Herbicidal effects index number, Echinochloa oryzicola: 10
Scirpus juncoides Rocxb.
  herbicidal effect index, S. juncoides Rocxb.: 10

## CCN(c1ccccc1)n1c(=O)c(C(=O)O)nn(C)c1=O [V-368]
A. retroflexus [1]
  herbicidal effect index, Amaranthus retroflexus: 10
Echinochloa crus-galli [6]
  herbicidal effect index, Echinochloa crus-galli: 7
Indian millet [2]
  herbicidal effect index, Abutilon theophrasti: 10
A. retroflexus [3]
  herbicidal effect index, Amaranthus retroflexus: 9
Indian millet [4]
  herbicidal effect index, Abutilon theophrasti: 9
Echinochloa crus-galli [5]
  herbicidal effect index, Echinochloa crus-galli: 7
Monochoria vaginalis
  Herbicidal effects index number, Monochoria vaginalis: 10
Echinochloa oryzicola
  Herbicidal effects index number, Echinochloa oryzicola: 10
Scirpus juncoides Rocxb.
  herbicidal effect index, S. juncoides Rocxb.: 10

## CN(c1ccc(F)cc1)n1c(=O)c(C(=O)O)nn(C)c1=O [V-370]
A. retroflexus [1]
  herbicidal effect index, Amaranthus retroflexus: 10
Echinochloa crus-galli [6]
  herbicidal effect index, Echinochloa crus-galli: 7
Indian millet [2]
  herbicidal effect index, Abutilon theophrasti: 10
A. retroflexus [3]
  herbicidal effect index, Amaranthus retroflexus: 10
Indian millet [4]
  herbicidal effect index, Abutilon theophrasti: 9
Echinochloa crus-galli [5]
  herbicidal effect index, Echinochloa crus-galli: 7
Monochoria vaginalis
  Herbicidal effects index number, Monochoria vaginalis: 10
Echinochloa oryzicola
  Herbicidal effects index number, Echinochloa oryzicola: 10
Scirpus juncoides Rocxb.
  herbicidal effect index, S. juncoides Rocxb.: 10

## CCON=C(C)Cn1c(=O)c(C(=O)O)nn(C)c1=O [V-371]
A. retroflexus [1]
  herbicidal effect index, Amaranthus retroflexus: 10
Echinochloa crus-galli [6]
  herbicidal effect index, Echinochloa crus-galli: 9
Indian millet [2]
  herbicidal effect index, Abutilon theophrasti: 10
A. retroflexus [3]
  herbicidal effect index, Amaranthus retroflexus: 10
Indian millet [4]
  herbicidal effect index, Abutilon theophrasti: 9
Echinochloa crus-galli [5]
  herbicidal effect index, Echinochloa crus-galli: 8
Monochoria vaginalis
  Herbicidal effects index number, Monochoria vaginalis: 10
Echinochloa oryzicola
  Herbicidal effects index number, Echinochloa oryzicola: 10
Scirpus juncoides Rocxb.
  herbicidal effect index, S. juncoides Rocxb.: 9

## COc1cc(-n2c(=O)c(C(=O)C3=C(O)C(C)(C)C(=O)C(C)(C)C3=O)nn(C)c2=O)cc(OC)c1OC [VI-97]
A. retroflexus [3]
  herbicidal effect index, Amaranthus retroflexus: 10
Indian millet [4]
  herbicidal effect index, Abutilon theophrasti: 10
Echinochloa crus-galli [5]
  herbicidal effect index, Echinochloa crus-galli: 7
Setaria viridis
  herbicidal effect index, Setaria viridis: 10
Monochoria vaginalis
  Herbicidal effects index number, Monochoria vaginalis: 10
Echinochloa oryzicola
  Herbicidal effects index number, Echinochloa oryzicola: 10
Scirpus juncoides Rocxb.
  herbicidal effect index, S. juncoides Rocxb.: 10
